Results: patent US20080063628A1, “METHODS TO PROMOTE CELL DIFFERENTIATION” (priority 2006, published 2008)

How the values were obtained:
[1] = tested on: PHA treated PBMCs containing activated T-lymphocytes; experiment: Trichostatin A treatment of PBMCs, gene expression by RT-PCR (Example 20); format: cell-based, human; conditions: 5 μM
Text: (§1) Human peripheral blood mononuclear cells (PBMCs) were isolated from whole blood using Histopaque (Sigma) gradients and standard density centrifugation. PBMCs are a heterogeneous mixture of lymphoid cells including quiescent T-lymphocytes. Cells were washed thoroughly, counted, and resuspended at 1-2×10^6 cells per ml in culture medium containing RPMI-1640 and 10% FCS. Phytohemagglutinin (PHA; Sigma) is a mitogenic lectin that specifically induces T-lymphocyte activation and proliferation. PHA was added to the cell suspension at a final concentration of 10 μg/ml, and PBMCs were cultured for 3 days at 37° C. with 5% CO2. […] At the end of culture, PBMCs were pooled to harvest, washed thoroughly, and resuspended in fresh culture medium with 5 μM trichostatin A diluted in DMSO. A control culture of PHA-treated PBMCs received an equivalent dilution of DMSO alone. Cells were returned to culture for an additional 24 or 48 hours. Alternatively, resting PBMCs were isolated in a similar manner and cultured for 24 or 48 hours total incubation time with either 5 μM trichostatin A or DMSO alone. At the conclusion of culture, cells were harvested and washed with PBS prior to preparation of RNA in RLT lysis buffer with β-mercaptoethanol (Qiagen). RNA was purified using the RNeasy Mini Kit (Qiagen); RNA quantity and quality were determined using a spectrophotometer. CDNA was made using the iScript CDNA synthesis kit (BioRad). Samples of 20 ng CDNA were used in each RT-PCR reaction, performed on the Applied Biosystems 7500. Results were normalized against GAPDH expression levels with data analysis performed using the accompanying software.

[2] = tested on: resting peripheral blood mononuclear cells (PBMCs); experiment: as above; format: cell-based, human; conditions: 5 μM
Text: as §1

[3] = 24 hrs, after 3 days PHA 10 μg/ml
[4] = 48 hours, after 3 days PHA 10 μg/ml

With `CC(/C=C/C(=O)NO)=C\[C@@H](C)C(=O)c1ccc(N(C)C)cc1` [trichostatin A] the HNF-3 beta expression ([1]; 24 or 48 hours) was “negative”, the Sox17 expression ([1]; 24 or 48 hours) was “negative” and the glucagon expression ([1]; 24 or 48 hours) was “negative”. For the same compound, the insulin expression ([1]; 24 or 48 hours) was “negative”, the somatostatin expression ([1]; 24 or 48 hours) was “negative” and the GAPDH gene expression [1, 3] was “+++ (detectable at less than 35 cycles by RT-PCR with SE less than 0.9)”. For the same compound, the GATA4 gene expression [1, 3] was “+++ (detectable at less than 35 cycles by RT-PCR with SE less than 0.9)”, the Gata1 gene expression [1, 3] was “nd (not detectable at >40 cycles by RT-PCR)” and the Pdx-1 gene expression [1, 3] was “+ (detectable at greater than 35–40 cycles by RT-PCR)”. The GATA4 gene expression [1, 4] was “+++ (detectable at less than 35 cycles by RT-PCR with SE less than 0.9)”, the Gata1 gene expression [1, 4] was “nd (not detectable at >40 cycles by RT-PCR)” and the Pdx-1 gene expression [1, 4] was “+ (detectable at greater than 35–40 cycles by RT-PCR)”. For the same compound, the HNF-3 beta expression ([2]; 24 or 48 hours) was “negative”, the Sox17 expression ([2]; 24 or 48 hours) was “negative” and the glucagon expression ([2]; 24 or 48 hours) was “negative”. The insulin expression ([2]; 24 or 48 hours) was “negative”, the somatostatin expression ([2]; 24 or 48 hours) was “negative” and the GAPDH gene expression ([2]; 24 hrs) was “+++ (detectable at less than 35 cycles by RT-PCR with SE less than 0.9)”. The GATA4 gene expression ([2]; 24 hrs) was “+ (detectable at greater than 35–40 cycles by RT-PCR)”, the Gata1 gene expression ([2]; 24 hrs) was “nd (not detectable at >40 cycles by RT-PCR)” and the Pdx-1 gene expression ([2]; 24 hrs) was “nd (not detectable at >40 cycles by RT-PCR)”. For the same compound, the GAPDH gene expression ([2]; 48 hours) was “+++ (detectable at less than 35 cycles by RT-PCR with SE less than 0.9)”, the GATA4 gene expression ([2]; 48 hours) was “+ (detectable at greater than 35–40 cycles by RT-PCR)” and the Gata1 gene expression ([2]; 48 hours) was “nd (not detectable at >40 cycles by RT-PCR)”. For the same compound, the Pdx-1 gene expression ([2]; 48 hours) was “nd (not detectable at >40 cycles by RT-PCR)”.
